Experimental data reported in US20070049593A1 (priority 2004, published 2007).
Counter-ions that a name gives are not always drawn.

target: T1, HCV polymerase (Hepatitis C virus genotype 1b, UniProt P26663); experiment: biochemical; set-up: species or system HCV BK strain
T1 construct: a region encoding NS5B (J Virol 1991 March, 65(3), 1105-13, 544 amino acids after deletion of 47 amino acids on the C-terminal); 6xHis (C); made in house; host or cells: Escherichia coli
Outline: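 His-tagged NS5B (BK strain, 47-aa C-terminal deletion, E. coli-expressed) at 0.5 μg/ml copied 5 μg/ml run-off RNA bearing the HCV 3′ UTR with 2 μM UTP plus [3H]UTP, 50 μM ATP/GTP, in pH 7.5 Tris with 5 mM MgCl2, 25 °C, 90 min. TCA-precipitated RNA was counted and IC50 calculated.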

T1 sequence (P26663 2420-2963): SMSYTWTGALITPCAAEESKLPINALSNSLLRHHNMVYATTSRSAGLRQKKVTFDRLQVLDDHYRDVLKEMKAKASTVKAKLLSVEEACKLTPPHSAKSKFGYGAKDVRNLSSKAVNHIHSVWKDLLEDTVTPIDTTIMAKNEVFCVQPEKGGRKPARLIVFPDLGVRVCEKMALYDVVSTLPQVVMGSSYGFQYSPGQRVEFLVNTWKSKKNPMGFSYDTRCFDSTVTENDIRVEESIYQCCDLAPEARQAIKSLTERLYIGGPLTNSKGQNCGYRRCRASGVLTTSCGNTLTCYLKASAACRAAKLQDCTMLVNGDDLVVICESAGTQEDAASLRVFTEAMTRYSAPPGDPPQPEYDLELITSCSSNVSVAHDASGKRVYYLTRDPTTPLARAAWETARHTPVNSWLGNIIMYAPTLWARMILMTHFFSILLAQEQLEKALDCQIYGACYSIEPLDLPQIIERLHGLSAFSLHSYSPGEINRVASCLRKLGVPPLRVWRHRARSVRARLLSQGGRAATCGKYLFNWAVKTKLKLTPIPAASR

Row | Compound | IC50 [nM]
1 | COC(=O)COc1ccc2[nH]cc(C[C@H](NC(=O)c3ccc4c(C5CCCCC5)c5n(c4c3)CCOc3cc(OC)ccc3-5)c3csc(C)n3)c2c1 [Example 2-417, methyl {3-[(S)-2-[(12-cyclohexyl-3-methoxy-6,7-dihydro-5-oxa-7a-azadibenzo[a,e]azulene-9-carbonyl)amino]-2-(2-methylthiazol-4-yl)ethyl]-1H-indol-5-yloxy}acetate] | < 100
2 | COCC1CCCN(CCN2CCn3c(c(C4CCCC4)c4ccc(C(=O)O)cc43)-c3ccc(Cl)cc32)C1 (centres unmarked) [Example 1-390, 3-chloro-13-cyclopentyl-5-[2-(3-methoxymethylpiperidin-1-yl)ethyl]-6,7-dihydro-5H-benzo[5,6][1,4]diazepino[7,1-a]indole-10-carboxylic acid] | < 100
3 | CC(C)(COc1ccc(C#N)cc1)NC(=O)c1ccc2c(C3CCCCC3)c3n(c2c1)CCOc1ccccc1-3 [Example 2-157, N-[2-(4-cyanophenoxy)-1,1-dimethylethyl]-12-cyclohexyl-6,7-dihydro-5-oxa-7a-azadibenzo[a,e]azulene-9-carboxamide] | 100 to 1000
4 | O=C(O)c1ccc2c(C3CCCCC3)c3n(c2c1)CCN(CCN1CCCCC1)c1cc(Cl)ccc1-3 [Example 1-14, 3-chloro-13-cyclohexyl-5-[2-(piperidin-1-yl)ethyl]-6,7-dihydro-5H-benzo[5,6][1,4]diazepino[7,1-a]indole-10-carboxylic acid dihydrochloride] | < 100
5 | COCCN(C)C(=O)CN1CCn2c(c(C3CCCCC3)c3ccc(C(=O)O)cc32)-c2ccccc21 [Example 1-37, 13-cyclohexyl-5-{[N-(2-methoxyethyl)-N-methylcarbamoyl]methyl}-6,7-dihydro-5H-benzo[5,6][1,4]diazepino[7,1-a]indole-10-carboxylic acid monohydrochloride] | < 100
6 | Cc1ccc2c(c1)N(CCN1CCCCC1)CCn1c-2c(C2CCCCC2)c2ccc(C(=O)O)c(Cl)c21 [Example 1-451, 9-chloro-13-cyclohexyl-3-methyl-5-[2-(piperidin-1-yl)ethyl]-6,7-dihydro-5H-benzo[5,6][1,4]diazepino[7,1-a]indole-10-carboxylic acid dihydrochloride] | < 100
7 | CN(C)CCN1CCn2c(c(C3CCCCC3)c3ccc(C(=O)O)cc32)-c2ccc(OCc3cc(S(C)(=O)=O)ccc3N3CCOCC3)cc21 [Example 1-309, 13-cyclohexyl-5-(2-dimethylaminoethyl)-3-[5-methanesulfonyl-2-(morpholin-4-yl)benzyloxy]-6,7-dihydro-5H-benzo[5,6][1,4]diazepino[7,1-a]indole-10-carboxylic acid trihydrochloride] | < 100
8 | CC(C)(CNC(=O)OC(C)(C)C)NC(=O)c1ccc2c(C3CCCCC3)c3n(c2c1)CCOc1ccccc1-3 [Example 2-185, tert-butyl {2-[(12-cyclohexyl-6,7-dihydro-5-oxa-7a-azadibenzo[a,e]azulene-9-carbonyl)amino]-2-methylpropyl}carbamate] | 100 to 1000
9 | CN(C)C1CCN(CCN2CCn3c(c(C4CCCCC4)c4ccc(C(=O)O)cc43)-c3ccccc32)CC1 [Example 1-44, 13-cyclohexyl-5-[2-(4-dimethylaminopiperidin-1-yl)ethyl]-6,7-dihydro-5H-benzo[5,6][1,4]diazepino[7,1-a]indole-10-carboxylic acid trihydrochloride] | < 100
10 | CNC(=O)N1CCN(CCN2CCn3c(c(C4CCCCC4)c4ccc(C(=O)O)cc43)-c3ccccc32)CC1 [Example 1-330, 13-cyclohexyl-5-[2-(4-methylcarbamoylpiperazin-1-yl)ethyl]-6,7-dihydro-5H-benzo[5,6][1,4]diazepino[7,1-a]indole-10-carboxylic acid dihydrochloride] | < 100
11 | O=C1Cn2c(c(C3CCCCC3)c3ccc(C(=O)O)cc32)-c2ccccc2N1 [Example 1-24, 13-cyclohexyl-6-oxo-6,7-dihydro-5H-benzo[5,6][1,4]diazepino[7,1-a]indole-10-carboxylic acid] | < 100
12 | COc1ccc2c(c1)OCCn1c-2c(C2CCCCC2)c2ccc(C(=O)N[C@@H](Cc3ccc(O)cc3)CN(C)C)cc21 [Example 2-308, N—[(S)-2-dimethylamino-1-(4-hydroxybenzyl)ethyl]-12-cyclohexyl-3-methoxy-6,7-dihydro-5-oxa-7a-azadibenzo[a,e]azulene-9-carboxamide] | < 100
13 | CN(CCN1CCn2c(c(C3CCCCC3)c3ccc(C(=O)O)cc32)-c2ccccc21)C1CCNC1 (centres unmarked) [Example 1-285, 13-cyclohexyl-5-{2-[N-methyl-N-(pyrrolidin-3-yl)amino]ethyl}-6,7-dihydro-5H-benzo[5,6][1,4]diazepino[7,1-a]indole-10-carboxylic acid dihydrochloride] | < 100
14 | O=C(O)c1ccc2c(C3CCCCC3)c3n(c2c1)CCOc1cc(O[C@H]2CCNC2)ccc1-3 [Example 2-42, 12-cyclohexyl-3-((S)-pyrrolidin-3-yloxy)-6,7-dihydro-5-oxa-7a-azadibenzo[a,e]azulene-9-carboxylic acid monohydrochloride] | < 100
15 | COCC[C@@H]1CCCN(CCN2CCn3c(c(C4CCCCC4)c4ccc(C(=O)O)cc43)-c3ccc(F)cc32)C1 [Example 1-434, 13-cyclohexyl-3-fluoro-5-{2-[(S)-3-(2-methoxyethyl)piperidin-1-yl]ethyl}-6,7-dihydro-5H-benzo[5,6][1,4]diazepino[7,1-a]indole-10-carboxylic acid dihydrochloride] | < 100
16 | CC1COCCN1CCN1CCn2c(c(C3CCCCC3)c3ccc(C(=O)O)cc32)-c2ccccc21 (centres unmarked) [Example 1-220, 13-cyclohexyl-5-[2-(3-methylmorpholin-4-yl)ethyl]-6,7-dihydro-5H-benzo[5,6][1,4]diazepino[7,1-a]indole-10-carboxylic acid dihydrochloride] | < 100
17 | COC1CCCN(CCN2CCn3c(c(C4CCCCC4)c4ccc(C(=O)O)cc43)-c3ccc(C)cc32)CC1 (centres unmarked) [Example 1-525, 13-cyclohexyl-5-[2-(4-methoxyazepan-1-yl)ethyl]-3-methyl-6,7-dihydro-5H-benzo[5,6][1,4]diazepino[7,1-a]indole-10-carboxylic acid dihydrochloride] | < 100
18 | COc1ccc2c(c1)OCCn1c-2c(C2CCCCC2)c2ccc(C(=O)NC(C)(C)c3nc4cc(C(=O)NCCO)ccc4[nH]3)cc21 [Example 2-390, N-{1-[5-(2-hydroxyethylcarbamoyl)-1H-benzimidazol-2-yl]-1-methylethyl}-12-cyclohexyl-3-methoxy-6,7-dihydro-5-oxa-7a-azadibenzo[a,e]azulene-9-carboxamide] | < 100
19 | O=C(O)c1ccc2c(C3CCCCC3)c3n(c2c1)CCc1ccccc1-3 [Example 5-4, 12-cyclohexyl-5,6-dihydroindolo[2,1-a]isoquinoline-9-carboxylic acid] | 100 to 1000
20 | O=C(Nc1ccc(O)cc1)c1ccc2c(C3CCCCC3)c3n(c2c1)CCOc1ccccc1-3 [Example 2-192, N-(4-hydroxyphenyl)-12-cyclohexyl-6,7-dihydro-5-oxa-7a-azadibenzo[a,e]azulene-9-carboxamide] | < 100
